Experimental data reported in patent publication US8399452B2, “Dibenzo[b,f][1,4]oxazepin-11-yl-N-hydroxybenzamides as HDAC inhibitors” (Methylgene Inc., priority 2006, dated 2013).

Tested on: Drosophila Huntington's Disease model flies
Experiment: In Vivo Drosophila Fly Assay for Treatment of Huntington's Disease (automated climbing behavior, early/late speed effect size)
Design: species or system Drosophila melanogaster
Settings: for Speed 1 to 7 (effect size, early speed): average speed days 1-7 vs DMSO-carrier control; for Speed 8 to 10 (effect size, late speed): average speed days 8-10 vs DMSO-carrier control
Text: The Drosophila Huntington's Disease assay used to screen compounds of the present invention followed that of WO 2007/002497, which is hereby incorporated by reference in its entirety.
Briefly, parental (model and driver) lines are maintained in sufficient quantities to provide virgins and males for assay crosses as well as perpetuating the lines. Disease model flies are maintained with the disease genes “silent”, functionally linked to a UAS enhancer element. The “driver” lines contain a GAL4 element under the control of a tissue-specific promoter. These are crossed together to generate the assay flies which have tissue-specific (i.e. CNS) expression of the disease gene(s).
Weekly assay crosses are set up with sufficient virgins and males to generate enough assay embryos for sorting. Approximately 50,000 males and 75,000 virgins are crossed in population cages. Embryos are collected for an eight hour window two days later. The embryos are then sorted onto 16 mm assay vials containing regular fly media and allowed to develop. Flies containing both the GAL4 driver element and the disease gene(s) are detected by the presence of GFP, a fluorescing protein. Approximately 10 assay flies eclose per vial, the optimal number for the behavioral assay. Once the flies eclose, they are transferred onto assay vials containing liquid Drosophila food. Similarly, control crosses are set up with virgins of the driver and males from a non-disease UAS line. Throughout fly production and the assay days, all flies are maintained at constant temperature and humidity, with preset light cycle, optimized for the particular lines and crosses.
Quality control (QC) for the parental lines is carried out weekly by collecting a sample of random male flies from each line. Single-fly PCR is carried out to ascertain the presence of the GAL4 or UAS element. If greater than 5% of the individuals lack the appropriate element, the assay cross is aborted. A second form of QC is also carried out to ensure that the GAL4 element is able to drive expression of a transgene. A sample of individual “driver” virgins is crossed to UAS-GFP males. Their progeny are visually checked for GFP expression in the appropriate tissues. Lack of GFP in greater than 4% of the crosses results in the assay being aborted.
Test compounds are weighed out and dissolved in DMSO at stock concentrations 100× what is desired in the assay and arrayed into 96-well master plates, including wells for DMSO-only controls and the positive control(s). A single well is reserved for a colored dye used to ensure proper orientation of compounds during drug dispensing and fly transfer. Replicate daughter plates for each day of the assay are stamped out. The plates are bar coded and stored at −20 C until used for the assay.
For a particular assay day, the plates are thawed and a robotic liquid handler is used to dilute the test compound into the liquid fly food and dispense the mixture into the assay vials. For Huntington Disease (HD) models, eight replicates per single treatment (one compound, one concentration) are dispensed. Fresh test compound treated media is made daily during an assay.
On the day the assay flies eclose (emerge from […]; assay Day 0) they are transferred to the test compound treated vials. On assay Day 1, the flies are transferred onto clean test compound treated vials one hour before assay time. They are then placed in the assay machine to acclimate to the appropriate climate conditions.
The assay machine is an environmentally-enclosed and controlled robot that can maintain user-set temperature and humidity. The machine can hold up to sixteen 96-vial racks in four quadrants, for a total of 1536 vials. There are four camera stations, which hold four vials each and a CCD camera for movie capture. […]

O=C(NO)c1cnc(N2C3CNC(C3)C2c2cc(C(F)(F)F)ccn2)nc1 (stereo not drawn)
Speed 1 to 7 (effect size, early speed) (30 uM): 0.468 | Speed 8 to 10 (effect size, late speed) (30 uM): 0.087 | Speed 1 to 7 (effect size, early speed) (100 uM): 0.82 | Speed 8 to 10 (effect size, late speed) (100 uM): 0.82 | Speed 1 to 7 (effect size, early speed) (300 uM): 0.3 | Speed 8 to 10 (effect size, late speed) (300 uM): 0.54
